From patent publication US9938278B2, “FXR (NR1H4) modulating compounds” (Gilead Sciences, Inc., priority 2014, dated 2018) come the findings set out here.

The target in the experiment is T1, human FXR alpha ligand binding domain (Homo sapiens, UniProt Q96RI1).
T1 construct: made in house; host or cells: E. coli BL21 (DE3), vector pDEST15
T1 sequence (Q96RI1 187-472 isoform Q96RI1-2): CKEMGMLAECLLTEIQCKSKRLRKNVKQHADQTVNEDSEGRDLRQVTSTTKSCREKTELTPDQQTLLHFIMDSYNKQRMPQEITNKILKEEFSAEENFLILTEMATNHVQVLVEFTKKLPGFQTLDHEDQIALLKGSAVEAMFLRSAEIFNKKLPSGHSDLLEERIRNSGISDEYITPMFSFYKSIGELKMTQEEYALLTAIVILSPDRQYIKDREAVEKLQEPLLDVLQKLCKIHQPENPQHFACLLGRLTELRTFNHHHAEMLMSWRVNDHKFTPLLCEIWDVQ
Kind of experiment: FRET Activity Assay (ligand mediated cofactor peptide interaction). It is filed as biochemical. The conditions noted are these: LANCE time-resolved FRET; GST-FXR-LBD with biotinylated SRC-1 peptide (676-700); read-out: agonistic potential EC50. The procedure:
Assays FRET Activity Assay Determination of a ligand mediated cofactor peptide interaction to quantify ligand binding to the nuclear receptor FXR was performed as follows: Preparation of human FXR alpha ligand binding domain: The human FXRalpha LBD was expressed in E. coli strain BL21 (DE3) as an N-terminally GST tagged fusion protein. The DNA encoding the FXR ligand binding domain was cloned into vector pDEST15 (Invitrogen). Expression was under control of an IPTG inducible T7 promoter. The amino acid boundaries of the ligand binding domain were amino acids 187-472 of Database entry NM_005123 (RefSeq). Expression and purification of the FXR-LBD: An overnight preculture of a transformed E. coli strain was diluted 1:20 in LB-Ampicillin medium and grown at 30° C. to an optical density of OD600=0.4-0.6. Gene expression was then induced by addition of 0.5 mM IPTG. […] The protein was analysed by SDS-Page.
The method measures the ability of putative ligands to modulate the interaction between the purified bacterial expressed FXR ligand binding domain (LBD) and a synthetic biotinylated peptide based on residues 676-700 of SRC-1 (LCD2, 676-700). […] The ligand binding domain (LBD) of FXR was expressed as fusion protein with GST in BL-21 cells using the vector pDEST15. […] The LANCE signal was detected by a Perkin Elmer VICTOR2VTM Multilabel Counter. […]

Turning to `CC(C)n1nc(C(=O)O)cc1N1CCC(O)(c2ccc(OCc3c(-c4c(Cl)cccc4Cl)noc3C3CC3)cc2Cl)CC1` [Example 1, 5-(4-(2-Chloro-4-((5-cyclopropyl-3-(2,6-dichlorophenyl)isoxazol-4-yl)methoxy)phenyl)-4-hydroxypiperidin-1-yl)-1-isopropyl-1H-pyrazole-3-carboxylic Acid], the EC50 was < 25 nM.
